Results from US20240067693A1, “POLYPEPTIDES AND USES THEREOF” (MEDIMMUNE LIMITED, priority 2020, published 2024).
Numbered stars: 1 amine (or outer) side, 2 acyl side, 3 side chain; on linkers, the order of the positions; unused ones are H or OH. Bridge positions count the residues as written; N and C are the ends. Square brackets hold non-standard residues; d marks the D form. Side chains are listed from the residue outwards. Peptide text beside a SMILES is read from it. * marks the point of attachment. C18 diacid = O=C(O)CCCCCCCCCCCCCCCCC(=O)*; γGlu = O=C(O)[C@H](CCC(=O)[*:2])N[*:1]; Aib = CC(C)(N)C(=O)O

How the values were obtained:
[1] = molecular target: T1, human calcitonin receptor (hCTR) (Homo sapiens, UniProt P30988); test: cAMP production in 1321N1 cells with stable recombinant expression of human calcitonin receptor (hCTR); assay type: cell-based; details: cAMP, 1321N1 cells, assay buffer with 0.1% BSA; read-out: EC50 (pM) hCTR
T1 construct: expressed in transfected cells
T1 sequence (P30988 25-474): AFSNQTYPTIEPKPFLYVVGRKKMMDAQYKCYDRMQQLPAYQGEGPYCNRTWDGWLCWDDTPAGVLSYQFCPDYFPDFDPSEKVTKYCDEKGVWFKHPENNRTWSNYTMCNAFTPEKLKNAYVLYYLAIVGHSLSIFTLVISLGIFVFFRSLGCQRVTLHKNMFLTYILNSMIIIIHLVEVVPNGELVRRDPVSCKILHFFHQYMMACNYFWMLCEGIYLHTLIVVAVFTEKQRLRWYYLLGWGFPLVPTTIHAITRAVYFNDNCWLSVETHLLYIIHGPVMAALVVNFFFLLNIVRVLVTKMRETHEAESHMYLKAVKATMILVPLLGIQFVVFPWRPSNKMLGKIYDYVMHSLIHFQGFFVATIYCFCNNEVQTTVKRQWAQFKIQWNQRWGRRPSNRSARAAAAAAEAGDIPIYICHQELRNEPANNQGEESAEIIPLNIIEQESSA
Summary of the method: (§1)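 EC50 values come from 4-parameter logistic fits of HTRF cAMP signal, normalised to maximal calcitonin or amylin effect. Peptides were tested in duplicate for 30 min at RT in IBMX-containing (0.5 mM) BSA/HEPES buffer pH 7.4 on stable 1321N1 (human CTR, AMYR3) or HEK (rat CTR, AMYR3) lines.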

[2] = molecular target: T2, human amylin receptor (calcitonin receptor co-expressed with receptor activity modifying protein, RAMP3) (hAMYR3) (Homo sapiens, UniProt O60896+P30988); test: cAMP production in 1321N1 cells with stable recombinant expression of human amylin receptor (hAMYR3); assay type: cell-based; details: for Ratio (selectivity hAMYR vs hCTR, ratio of EC50 values at the two receptors): EC50 hCTR / EC50 hAMYR3; for EC50: cAMP, 1321N1 cells, assay buffer with 0.1% BSA, read-out: EC50 (pM) hAMYR3
T2 construct: expressed in transfected cells
T2 sequence (P30988 25-474): T1 sequence (P30988 25-474)
T2 sequence (O60896 24-148 partner): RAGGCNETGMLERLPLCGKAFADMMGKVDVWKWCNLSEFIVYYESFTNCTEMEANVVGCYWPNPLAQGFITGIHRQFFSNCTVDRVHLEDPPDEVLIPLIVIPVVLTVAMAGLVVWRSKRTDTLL
Summary of the method: as §1

CC[C@H](C)[C@H](NC(=O)[C@@H]1CCCN1C(=O)CNC(=O)[C@H](Cc1ccccc1)NC(=O)[C@H](CC(N)=O)NC(=O)C(C)(C)NC(=O)[C@H](CO)NC(=O)[C@H](CO)NC(=O)[C@H](Cc1c[nH]cn1)NC(=O)[C@@H](NC(=O)[C@H](CC(C)C)NC(=O)[C@H](Cc1ccccc1)NC(=O)[C@H](CC(N)=O)NC(=O)[C@H](C)NC(=O)[C@H](CC(C)C)NC(=O)[C@H](CCCNC(=N)N)NC(=O)[C@H](CCC(N)=O)NC(=O)[C@@H](NC(=O)[C@H](C)NC(=O)[C@@H]1CSSC[C@H](NC(=O)[C@@H](N)CCCCNC(=O)CC[C@H](NC(=O)CCCCCCCCCCCCCCCCC(=O)O)C(=O)O)C(=O)N[C@@H](CC(N)=O)C(=O)N[C@@H]([C@@H](C)O)C(=O)N[C@@H](C)C(=O)N[C@@H]([C@@H](C)O)C(=O)N1)[C@@H](C)O)C(C)C)C(=O)N[C@H](CC(C)C)C(=O)N1CCC[C@H]1C(=O)N1CCC[C@H]1C(=O)N[C@H](C(=O)N[C@@H](CC(N)=O)C(=O)N[C@H](C(=O)NCC(=O)N[C@@H](CO)C(=O)N[C@@H](CC(N)=O)C(=O)N[C@H](C(=O)N[C@@H](Cc1ccc(O)cc1)C(N)=O)[C@@H](C)O)C(C)C)[C@@H](C)O [Peptide 59, K(γE-C18diacid)[CNTATC]ATQRLANFLVHSS(Aib)NFGPI(dL)PPTNVGSNTY-amide] (H-K([γGlu-C18 diacid])CNTATCATQRLANFLVHSS[Aib]NFGPI[dL]PPTNVGSNTY-NH2; disulfide 2-7; N-terminus assumed)
EC50 [1]: 809 pM | Ratio (selectivity hAMYR vs hCTR, ratio of EC50 values at the two receptors) [2]: 5 | EC50 [2]: 157 pM

CC[C@H](C)[C@H](NC(=O)[C@@H]1CCCN1C(=O)CNC(=O)[C@H](Cc1ccccc1)NC(=O)[C@H](CC(N)=O)NC(=O)C(C)(C)NC(=O)[C@H](CO)NC(=O)[C@H](CO)NC(=O)[C@H](Cc1c[nH]cn1)NC(=O)[C@@H](NC(=O)[C@H](CC(C)C)NC(=O)[C@H](Cc1ccccc1)NC(=O)[C@H](CC(N)=O)NC(=O)[C@H](C)NC(=O)[C@H](CC(C)C)NC(=O)[C@H](CCCNC(=N)N)NC(=O)[C@H](CCC(N)=O)NC(=O)[C@@H](NC(=O)[C@H](C)NC(=O)[C@@H]1CSSC[C@H](NC(=O)[C@@H](N)CCCCNC(=O)CC[C@H](NC(=O)CCCCCCCCCCCCCCCCC(=O)O)C(=O)O)C(=O)N[C@@H](CC(N)=O)C(=O)N[C@@H]([C@@H](C)O)C(=O)N[C@@H](C)C(=O)N[C@@H]([C@@H](C)O)C(=O)N1)[C@@H](C)O)C(C)C)C(=O)N[C@@H](CC(C)C)C(=O)N1CCC[C@@H]1C(=O)N1CCC[C@H]1C(=O)N[C@H](C(=O)N[C@@H](CC(N)=O)C(=O)N[C@H](C(=O)NCC(=O)N[C@@H](CO)C(=O)N[C@@H](CC(N)=O)C(=O)N[C@H](C(=O)N[C@@H](Cc1ccc(O)cc1)C(N)=O)[C@@H](C)O)C(C)C)[C@@H](C)O [Peptide 60, K(γE-C18diacid)[CNTATC]ATQRLANFLVHSS(Aib)NFGPIL(dP)PTNVGSNTY-amide] (H-K([γGlu-C18 diacid])CNTATCATQRLANFLVHSS[Aib]NFGPIL[dP]PTNVGSNTY-NH2; disulfide 2-7; N-terminus assumed)
EC50 [1]: 1030 pM | Ratio (selectivity hAMYR vs hCTR, ratio of EC50 values at the two receptors) [2]: 11 | EC50 [2]: 96 pM

CC[C@@H](C)[C@@H](NC(=O)[C@@H]1CCCN1C(=O)CNC(=O)[C@H](Cc1ccccc1)NC(=O)[C@H](CC(N)=O)NC(=O)C(C)(C)NC(=O)[C@H](CO)NC(=O)[C@H](CO)NC(=O)[C@H](Cc1c[nH]cn1)NC(=O)[C@@H](NC(=O)[C@H](CC(C)C)NC(=O)[C@H](Cc1ccccc1)NC(=O)[C@H](CC(N)=O)NC(=O)[C@H](C)NC(=O)[C@H](CC(C)C)NC(=O)[C@H](CCCNC(=N)N)NC(=O)[C@H](CCC(N)=O)NC(=O)[C@@H](NC(=O)[C@H](C)NC(=O)[C@@H]1CSSC[C@H](NC(=O)[C@@H](N)CCCCNC(=O)CC[C@H](NC(=O)CCCCCCCCCCCCCCCCC(=O)O)C(=O)O)C(=O)N[C@@H](CC(N)=O)C(=O)N[C@@H]([C@@H](C)O)C(=O)N[C@@H](C)C(=O)N[C@@H]([C@@H](C)O)C(=O)N1)[C@@H](C)O)C(C)C)C(=O)N[C@@H](CC(C)C)C(=O)N1CCC[C@H]1C(=O)N1CCC[C@H]1C(=O)N[C@H](C(=O)N[C@@H](CC(N)=O)C(=O)N[C@H](C(=O)NCC(=O)N[C@@H](CO)C(=O)N[C@@H](CC(N)=O)C(=O)N[C@H](C(=O)N[C@@H](Cc1ccc(O)cc1)C(N)=O)[C@@H](C)O)C(C)C)[C@@H](C)O [Peptide 61, K(γE-C18diacid)[CNTATC]ATQRLANFLVHSS(Aib)NFGP(dl)LPPTNVGSNTY-amide] (H-K([γGlu-C18 diacid])CNTATCATQRLANFLVHSS[Aib]NFGP[dI]LPPTNVGSNTY-NH2; disulfide 2-7; N-terminus assumed)
EC50 [1]: 654 pM | Ratio (selectivity hAMYR vs hCTR, ratio of EC50 values at the two receptors) [2]: 7 | EC50 [2]: 99 pM

CC[C@H](C)[C@H](NC(=O)[C@@H]1CCCN1C(=O)CNC(=O)[C@H](Cc1ccccc1)NC(=O)[C@H](CC(N)=O)NC(=O)C(C)(C)NC(=O)[C@H](CO)NC(=O)[C@H](CO)NC(=O)[C@H](Cc1c[nH]cn1)NC(=O)[C@@H](NC(=O)[C@@H](CC(C)C)NC(=O)[C@H](Cc1ccccc1)NC(=O)[C@H](CC(N)=O)NC(=O)[C@H](C)NC(=O)[C@H](CC(C)C)NC(=O)[C@H](CCCNC(=N)N)NC(=O)[C@H](CCC(N)=O)NC(=O)[C@@H](NC(=O)[C@H](C)NC(=O)[C@@H]1CSSC[C@H](NC(=O)[C@@H](N)CCCCNC(=O)CC[C@H](NC(=O)CCCCCCCCCCCCCCCCC(=O)O)C(=O)O)C(=O)N[C@@H](CC(N)=O)C(=O)N[C@@H]([C@@H](C)O)C(=O)N[C@@H](C)C(=O)N[C@@H]([C@@H](C)O)C(=O)N1)[C@@H](C)O)C(C)C)C(=O)N[C@@H](CC(C)C)C(=O)N1CCC[C@H]1C(=O)N1CCC[C@H]1C(=O)N[C@H](C(=O)N[C@@H](CC(N)=O)C(=O)N[C@H](C(=O)NCC(=O)N[C@@H](CO)C(=O)N[C@@H](CC(N)=O)C(=O)N[C@H](C(=O)N[C@@H](Cc1ccc(O)cc1)C(N)=O)[C@@H](C)O)C(C)C)[C@@H](C)O [Peptide 62, K(γE-C18diacid)[CNTATC]ATQRLANF(dL)VHSS(Aib)NFGPILPPTNVGSNTY-amide] (H-K([γGlu-C18 diacid])CNTATCATQRLANF[dL]VHSS[Aib]NFGPILPPTNVGSNTY-NH2; disulfide 2-7)
EC50 [1]: 7250 pM | Ratio (selectivity hAMYR vs hCTR, ratio of EC50 values at the two receptors) [2]: 43 | EC50 [2]: 167 pM
